The source of these data is patent publication US10596139B2 (CHASE PHARMACEUTICALS CORPORATION, priority 2015, dated 2020).

Series [1] has as its system Male Swiss mice. The series is described as follows: T-maze continuous alternation task (T-CAT) with oxybutynin and xanomeline. The class given is in vivo. The source says: Evaluation of Cognition with Oxybutynin and Xanomeline in the T-maze Alternation Task in Mice
The T-maze continuous alternation task (T-CAT) is useful as model for studying compounds with cognitive enhancing properties. The T-maze consists of 2 choice arms and 1 start arm mounted to a square center. Manual doors are provided to close specific arms during the force choice alternation task.
Mice were randomly assigned to one of the different experimental treatment groups. Each animal was identified by its group name, cage number, series (day) of experiment, and number (1 to 10) written with permanent ink on the tail.
The T-maze apparatus is made of gray Plexiglas with a main stem (55 cm long[…]10 cm wide[…]20 cm high) and two arms (30 cm long[…]10 cm wide[…]20 cm high) positioned at 90 degree angle relative to the main stem. A start box (15 cm long[…]10 cm wide) is separated from the main stem by a guillotine door. Horizontal doors are also provided to close specific arms during the force choice alternation task. […]
The percentage of alternation over the 14 free-choice trials was determined for each mouse and was used as an index of working memory performance. […]
Analysis of variance (ANOVA) was performed on the results. […] The drug-induced improvement of memory was calculated by setting the respective response of the saline/vehicle as 100% and that of the test group as 0% reversion. […]

Series [2] has as its system Male Swiss mice. The experiment in a line: Antagonism of xanomeline-induced diarrhea in mice by oxybutynin (fecal pellet count). The class given is in vivo. Conditions: oxybutynin i.p. 0.3 to 30 mg/kg, 30 minutes before xanomeline 30 mg/kg.
Experimental: Male Swiss mice (4-6 weeks old), N=10 per treatment group were used.
Mice were placed individually in cages without any bedding materials. During the experiment the number of fecal pellets was counted at different time-points as outlined below:
T0: administration of oxybutinin.
T30 min: administration of vehicle or xanomeline.
T 30 min to T 2.5 h: counting of accumulated fecal pellets excreted.
T+2.5 h to T+4.5 h: counting of accumulated fecal pellets excreted.
The total number of fecal pellets for each mouse was counted over time. An analysis of variance (ANOVA) was performed on the results. Fisher's Protected Least Significant Difference was used for pairwise comparisons. The p value≤0.05 were considered significant. Grubbs' test (http//www at graphpad.com/quickcalcs/Grubbs1.cfm) was used to detect outliers for each parameter in each experimental group.
For series [3], the system named is Male Swiss mice. The series is described as follows: Dose-response to xanomeline in a mouse model of diarrhea (fecal pellet count). The class given is in vivo. As to conditions: xanomeline i.p. 0.3 to 30 mg/kg. The source says: Study 1—Establishment of the Dose-Response to Xanomeline in a Mouse Model of Diarrhea.
Male Swiss mice (4-6 weeks old), N=10 per treatment group were used, and treated intra-peritoneally (i.p.) with either vehicle (vehicle group) or increasing doses of xanomeline, a representative muscarinic agonist. Mice were randomly assigned to one of two experimental groups (vehicle; or increasing doses of xanomeline). Each animal was identified by its group name, cage number, series (day) of experiment, and number (1 to 10) written with permanent ink on the tail.
Mice were placed individually in cages without any bedding materials. During the experiment the number of fecal pellets were counted at different time-points, starting one hour before the time of the administration of the test compound (T0), as outlined below:
T−1 h to T0: counting of the accumulated fecal pellets excreted.
T0: administration of the test compound.
T0 to T+2 h: counting of the accumulated fecal pellets excreted.
T+2 h to T+4 h: counting of the accumulated fecal pellets excreted.
The total number of fecal pellets for each mouse was counted over time. An analysis of variance (ANOVA) was performed on the results. Fisher's Protected Least Significant Difference was used for pairwise comparisons; p values≤0.05 were considered significant. […]

In series [4] the test system is patients with Alzheimer disease. As to conditions: cited from earlier work.
The test system of series [5] is healthy volunteers and Alzheimer's patients. Conditions: cited from earlier work.

`CCN(CC)CC#CCOC(=O)C(O)(c1ccccc1)C1CCCCC1` (stereo not shown) [oxybutynin, 4-diethylaminobut-2-ynyl 2-cyclohexyl-2-hydroxy-2-phenylethanoate]: the “ability to perform the T-maze test after pretreatment” value with Male Swiss mice [1] (i.p. oxybutynin pretreatment 30 minutes before xanomeline) is “restored the animals' ability to perform the T-maze test”. The “antagonism of diarrhea induced by xanomeline” value in the series on Male Swiss mice [2] is on record as “dose-dependently antagonized the diarrhea induced by xanomeline”.
Turning to `CCCCCCOc1nsnc1C1=CCCN(C)C1` [xanomeline, 3-(4-hexyloxy-1,2,5-thiadiazol-3-yl)-1-methyl-5,6-dihydro-2H-pyridine], the “diarrhea (number of fecal pellets)” value with Male Swiss mice [3] is on record as “dose-dependently causes diarrhea”. Moreover, the “cognitive and behavioral symptoms of Alzheimer disease” value in series [4] (compared to placebo, 6 months) was “significantly improve cognitive and behavioral symptoms of Alzheimer disease”. Moreover, the “side effects (bradycardia, gastro-intestinal distress, excessive salivation, sweating)” value in series [4] (patients with Alzheimer disease) is on record as “dose-dependent unacceptable side effects”. The “ability to perform the T-maze test at the higher dose” value in the series on Male Swiss mice [1] (i.p. xanomeline, higher dose (dose that caused diarrhea)) was “too sick to perform the test”. Moreover, the discontinuation rate entry in series [5] (Alzheimer's patient population) was “higher than 50%”. In addition, in series [5] (oral, taken with food), the “dose tolerated by some individuals” value is on record as 110 mg three times/day. Besides, in series [5] (orally administered), the maximal tolerated dose was 75 mg three times/day and the “maximal tolerated dose per day” value was 225 mg/day.
